{
  "source": "patent US8420777B2",
  "about": "“Compounds that inhibit Hsp90 protein-protein interactions with IAP proteins” (University of Massachusetts, priority 2004, dated 2013)",
  "key": {"recombinant Hsp90": {"target": "T1, recombinant Hsp90 (Homo sapiens, UniProt P07900, S63T)", "T1 construct": "GST-Hsp90 (amino acids 1-732); GST (N); made in house; host or cells: E. coli", "assay": "ELISA binding to recombinant Hsp90", "text": "(§1) FIG. 31 is a graph depicting Hsp90 binding by Survivin peptides, measured by ELISA. Data are the mean±S.D. of two independent experiments."}, "HeLa cells [1]": {"system": "HeLa cells", "assay": "Apoptosis by hypodiploid DNA content, propidium iodide flow cytometry", "format": "cell-based, Human", "details": "24 hours", "description": "For determination of apoptosis by hypodiploid DNA content, various tumor cell lines were incubated with increasing concentrations of the cell permeable control scrambled (SEQ ID NO:25) or Survivin peptide (SEQ ID NO:19), harvested after 24 hours (floaters plus attached cells) fixed in 70% ethanol, and stained with 10 μg/ml propidium iodide plus 100 μg/ml RNAse A and 0.05% Triton™ X-100 in PBS, pH 7.4. Cultures were analyzed for DNA content by flow cytometry. For colorimetric quantification of cell viability, an MTT assay was used. Various tumor cell lines were incubated with increasing concentrations of the cell permeable retro-inverso control scrambled P4 or the Survivin-specific P3 peptide, incubated for 24 hours at 37° C. washed twice with Bruffs Media, and 4,5-dimethylthiazol-2-yl)-2,5-diphenyltetrazolium bromide (MTT) (Sigma, St. Louis, Mo.) was added at 5 mg/ml. Decrease in cell viability was analyzed for loss of colorimetric absorption at OD405.\nHeLa cells were incubated with the indicated increasing concentrations of the cell permeable Control (scrambled) or Survivin peptide, harvested after 24 hours at 37° C., and analyzed by hypodiploid DNA content by propidium iodide staining and flow cytometry.\nHeLa cells were incubated with chemotherapeutic drugs Taxol™ (10 μM) or adriamycin (300 nM), or cell permeable control peptide or the Survivin peptide, harvested after 24 hours, and analyzed for induction of apoptosis by hypodiploid DNA content by flow cytometry."}, "HeLa cells [2]": {"system": "HeLa cells", "assay": "Annexin V labeling and propidium iodide multiparametric flow cytometry", "format": "cell-based, Human", "details": "increasing concentrations, eight hour incubation, 37° C.", "description": "HeLa cell cultures were treated with the indicated increasing concentrations of P31 (Survivin) or P33 (Control; SEQ ID NO:25) peptides, harvested after an eight hour incubation at 37° C., and analyzed for multiparametric flow cytometry of Annexin V labeling (X-axis, a marker of apoptosis) and propidium iodide staining (Y-axis, a marker of cell death)."}, "HeLa cells [3]": {"system": "HeLa cells", "assay": "Stability of Hsp90 client proteins and caspase-3 proform, Western blot", "format": "cell-based, Human", "details": "increasing concentrations, 24 hours", "description": "To determine whether intracellular loading of the Survivin cell permeable peptide reproduced the effect of mAb 8E2 that disrupts the Survivin-Hsp90 interaction in destabilizing Survivin levels in vivo (FIG. 8), HeLa cells were loaded with the indicated increasing concentrations of cell permeable control (SEQ ID NO:25) or Survivin (SEQ ID NO:19) cell permeable peptide, harvested after 24 hours, and analyzed for stability of Hsp90 client proteins, Survivin and Akt. Polyclonal antibody to Akt was obtained from Cell Signaling Technology (Cat. No. 9272)."}, "HL-60 cells": {"system": "HL-60 cells", "assay": "Cell killing by trypan blue exclusion", "format": "cell-based", "description": "The expression and function of the survivin-Hsp90 pathway in acute myelogenous leukemia (AML) cell lines was analyzed. Survivin was abundantly expressed in four AML cell lines, U937, K-562, THP-1 and HL-60, by Western blotting (FIG. 29A)."}, "telomerase": {"system": "telomerase", "assay": "TRAP assay on Hsp90 immunoprecipitates", "format": "cell-based", "details": "PC3 cells treated before immunoprecipitation", "description": "Survivin peptide treated PC3 cells were also tested for telomerase activity, which requires Hsp90 (Holt et al., Genes Dev., 13:817-26 (1999)). Cells were treated as in above, immunoprecipitated with an antibody to Hsp90, and telomerase activity was determined by TRAP assay (Kim and Wu, Nucleic Acids Res., 25:2595-7 (1997)) of the immunoprecipitates. Telomerase activity is indicated by a ladder of telomere products."}, "[4]": {"system": "breast carcinoma MCF-7 cells", "assay": "Soft agar colony formation (anchorage-independent growth)", "format": "cell-based", "details": "75 or 150 μm in growth media, relative to Control scrambled peptide", "description": "For soft agar colony formation, 2×10^4 adapted breast carcinoma MCF-7 cells were suspended in 1.5 ml of DMEM supplemented with 10% FBS and 0.35% bactoagar (Becton Dickinson, Sparks, Md.) in 36 mm tissue culture plates containing 1.5 ml of 0.75% agarose in growth medium at the bottom layer. The plates were incubated at 37° C. in a 5% CO2 incubator for 2-5 weeks. The colonies were stained with 0.005% crystal violet (Sigma) and counted using a dissecting microscope under high power field.\nThe two upper plates shown in FIG. 19 had no visible cell colonies."}, "survivin-Hsp90": {"target": "T2, survivin-Hsp90 (Homo sapiens, UniProt P07900, S63T)", "T2 construct": "GST-Hsp90 (amino acids 1-732); GST (N); made in house; host or cells: E. coli", "assay": "ELISA inhibition of recombinant survivin binding to Hsp90", "text": "as §1"}, "HeLa cells [5]": {"system": "HeLa cells", "assay": "Multiparametric flow cytometry of caspase activity and membrane integrity", "format": "cell-based, Human", "details": "increasing concentrations, 24 hours", "description": "For multiparametric analysis of caspase-dependent cell death and loss of plasma membrane integrity, HeLa, MCF-7, or genetically engineered HCT116 cells (obtained from ATCC) were loaded with increasing concentrations of cell permeable control scrambled peptide or the Survivin peptide, harvested after culturing for 24 hours at 37° C., and analyzed for cell viability (propidium iodide, red channel) and active caspase-3 activity (CaspaTag™ from Intergen, Purchase, N.Y., green channel) by flow cytometry.\nCells were harvested after 24 hours of incubation with peptide and simultaneously analyzed for caspase activity by DEVDase activity (X-axis, green fluorescence) and cell membrane integrity by propidium iodide staining (Y-axis, red fluorescence). Cells in the upper right quadrant correspond to the population with elevated caspase activity and loss of cell membrane integrity (apoptotic)."}, "[6]": {"system": "HL-60 and THP-1 AML cell lines", "assay": "MTT cell viability, short versus full length peptide", "format": "cell-based", "details": "4×10^5 cells", "description": "FIGS. 29B-29D are graphs depicting killing of AML cells by Survivin peptides. FIG. 29B depicts survivin peptide activity in HL-60 cells, measured by Trypan blue exclusion. FIGS. 29C and 29D depict killing, as measured using MTT, of HL-60 (FIG. 29C) or THP-1 (FIG. 29D) cells by full length Survivin peptide (SEQ ID NO:19), Survivin peptide K79-G83 (SEQ ID NO:20), or scrambled peptide (SEQ ID NO:25 and SEQ ID NO:28).\nThe activity of a shorter Survivin peptide was also tested in an AML cell line. A shorter cell permeable Survivin peptide was synthesized by fusing the third α-helix of the Antennapedia carrier sequence to the amino-terminus of the Survivin peptide sequence K79-G83 (SEQ ID NO:20). […] The scrambled control peptide ([…]; SEQ ID NO:28) was ineffective (FIGS. 29C, D). For these experiments a higher number of cells was used (4×10^5) to produce a 50% killing efficiency by full length survivin peptide."}},
  "data": [
    {"sequence": "RQIKIWFQNRRMKWKKKHSSGCAFL (Synthetically generated peptide) [P31]", "values": [
      {"measurement": "binding to recombinant Hsp90 in vitro", "setting": "recombinant Hsp90", "result": "comparably bound recombinant Hsp90"},
      {"measurement": "cell viability reflected by hypodiploid DNA content", "setting": "HeLa cells [1]; increasing concentrations, 37° C.", "result": "massive loss of cell viability"},
      {"measurement": "cell population with hypodiploid DNA content (apoptotic)", "setting": "HeLa cells [1]; peptides, comparison with chemotherapeutic drugs", "result": "results in the appearance of a large cell population with hypodiploid DNA content"},
      {"measurement": "induction of apoptosis (Annexin V / propidium iodide)", "setting": "HeLa cells [2]", "result": "induced apoptosis in a dose-dependent manner"},
      {"measurement": "levels of Survivin and Akt", "setting": "HeLa cells [3]", "result": "low levels of Survivin and Akt"},
      {"measurement": "cell killing (trypan blue exclusion)", "setting": "HL-60 cells", "result": "dose-dependent and complete cell killing"},
      {"measurement": "telomerase activity", "setting": "telomerase", "result": "abrogated telomerase activity"},
      {"measurement": "anchorage-independent cell growth and survival", "setting": "[4]", "result": "completely inhibited"},
      {"measurement": "inhibition of binding of recombinant survivin to Hsp90", "setting": "survivin-Hsp90", "result": "inhibited the binding of recombinant survivin to Hsp90 in a dose-dependent manner"},
      {"measurement": "cell death (caspase activity and loss of plasma membrane integrity)", "setting": "HeLa cells [5]", "result": "induces cell death more efficiently than scrambled control peptide"},
      {"measurement": "killing efficiency", "setting": "[6]", "result": 50, "unit": "%"}
    ]}
  ]
}
